In patent US8349318B2, “Use of specifically engineered enzymes to enhance the efficacy of prodrugs” (The Board of Trustees of the University of Illinois, priority 2008, dated 2013):

Key:
[1] = biological target: dCK R104L/D133A (Homo sapiens, UniProt P27707, D133A/R104L); assay: Kinetic characterization of nucleoside phosphorylation by dCK R104L/D133A; details: Table 9
[2] = biological target: T1, R104Q-D133A dCK (Homo sapiens, UniProt P27707, D133A/R104Q); assay: Kinetic assay of nucleoside phosphorylation by R104Q-D133A dCK; type: biochemical; details: nucleoside 200 uM
T1 construct: made in house
T1 sequence (P27707 whole entry R104Q/D133A): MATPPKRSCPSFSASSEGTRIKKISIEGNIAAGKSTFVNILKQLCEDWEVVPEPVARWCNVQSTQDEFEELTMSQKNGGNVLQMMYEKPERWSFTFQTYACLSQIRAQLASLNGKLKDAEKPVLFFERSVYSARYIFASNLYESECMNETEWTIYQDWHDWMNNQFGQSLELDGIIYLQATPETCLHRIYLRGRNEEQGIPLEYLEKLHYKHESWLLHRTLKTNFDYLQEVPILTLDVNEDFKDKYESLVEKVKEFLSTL

Chain of dCK R104L/D133A (P27707 whole entry R104L/D133A): as the sequence (P27707 whole entry R104Q/D133A) above, with Q104L counted along it

## Cc1cn([C@H]2C[C@H](O)[C@@H](CO)O2)c(=O)[nH]c1=O [D-dT, D-thymidine]
[1]
  kcat, R104L/D133A: 3.20 ± 0.07 s⁻¹
[1]; read-out: Km, R104L/D133A
  Km: 24.3 ± 3.6 µM
[2]
  kcat R104Q-D133A dCK (with 1 mM ATP as donor): 0.15 s⁻¹
